Target: T1, GAK (cyclin G-associated kinase), GST-tagged human GAK (Homo sapiens, UniProt O14976)
T1 sequence (O14976 1-1311): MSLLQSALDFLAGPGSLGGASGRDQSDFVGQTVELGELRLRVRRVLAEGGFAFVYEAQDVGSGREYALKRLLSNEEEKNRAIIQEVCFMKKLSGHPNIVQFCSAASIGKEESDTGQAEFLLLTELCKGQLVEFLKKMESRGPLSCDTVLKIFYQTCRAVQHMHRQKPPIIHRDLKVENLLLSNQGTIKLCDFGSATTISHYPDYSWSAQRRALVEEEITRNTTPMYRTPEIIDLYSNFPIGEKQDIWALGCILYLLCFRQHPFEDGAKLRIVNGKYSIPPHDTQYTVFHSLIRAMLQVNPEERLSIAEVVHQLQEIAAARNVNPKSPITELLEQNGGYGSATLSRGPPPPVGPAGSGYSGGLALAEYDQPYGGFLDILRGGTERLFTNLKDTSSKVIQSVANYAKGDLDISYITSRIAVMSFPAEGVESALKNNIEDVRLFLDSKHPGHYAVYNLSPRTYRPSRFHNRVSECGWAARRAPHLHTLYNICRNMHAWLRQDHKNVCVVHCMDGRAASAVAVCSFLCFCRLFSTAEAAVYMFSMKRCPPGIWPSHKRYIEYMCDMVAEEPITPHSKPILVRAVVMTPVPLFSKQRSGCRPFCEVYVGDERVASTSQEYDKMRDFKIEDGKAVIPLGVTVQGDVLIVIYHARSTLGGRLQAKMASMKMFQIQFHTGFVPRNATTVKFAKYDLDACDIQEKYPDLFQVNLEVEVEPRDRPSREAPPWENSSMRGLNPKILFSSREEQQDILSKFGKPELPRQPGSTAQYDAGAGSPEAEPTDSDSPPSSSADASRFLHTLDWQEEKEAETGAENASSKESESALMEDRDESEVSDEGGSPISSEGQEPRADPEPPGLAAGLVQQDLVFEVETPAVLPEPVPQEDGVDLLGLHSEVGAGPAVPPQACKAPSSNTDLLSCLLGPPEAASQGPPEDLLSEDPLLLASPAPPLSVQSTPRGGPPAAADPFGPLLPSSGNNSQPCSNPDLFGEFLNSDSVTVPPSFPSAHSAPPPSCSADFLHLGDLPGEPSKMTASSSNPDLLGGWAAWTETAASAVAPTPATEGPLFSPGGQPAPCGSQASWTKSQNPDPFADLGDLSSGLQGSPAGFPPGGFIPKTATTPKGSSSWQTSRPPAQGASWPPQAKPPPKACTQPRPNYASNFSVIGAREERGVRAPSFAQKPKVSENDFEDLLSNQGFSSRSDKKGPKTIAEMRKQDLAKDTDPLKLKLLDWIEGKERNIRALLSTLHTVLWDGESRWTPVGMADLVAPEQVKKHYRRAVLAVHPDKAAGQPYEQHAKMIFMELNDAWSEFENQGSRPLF
Assay: […]-ATP in vitro kinase assay, SDS-PAGE autoradiography
Assay type: biochemical
Conditions: substrate mouse PP2A B'γ fragment, also autophosphorylation, 5 µM ATP, 10 mM MgCl2, 5 mM MnCl2, pH 7.5, 30°C, 30 min

| Structure (SMILES) | intensity ratio of phosphorylated PP2A B'γ and GAK | intensity ratio of phosphorylated PP2A B'γ and GAK (10 µM compound) |
| --- | --- | --- |
| C[S+]([O-])c1ccc(-c2nc(-c3ccc(F)cc3)c(-c3ccncc3)[nH]2)cc1 (stereo not shown) [SB203580] | Both of these compounds inhibited GAK activity similarly | – |
| COc1cc2ncnc(Nc3ccc(F)c(Cl)c3)c2cc1OCCCN1CCOCC1 [gefitinib] | Gefitinib inhibited GAK autophosphorylation and GAK-mediated phosphorylation of PP2A B′γ in a dose-dependent manner | – |
| C#Cc1cccc(Nc2ncnc3cc(OCCOC)c(OCCOC)cc23)c1 [erlotinib] | Both of these compounds inhibited GAK activity similarly | – |
| Oc1ccc(/C=C/c2cc(O)cc(O)c2)cc1 [resveratrol] | – | the same concentration of resveratrol had only a slight inhibitory effect |

— paper PMC4074034, “Gefitinib and Luteolin Cause Growth Arrest of Human Prostate Cancer PC-3 Cells via Inhibition of Cyclin G-Associated Kinase and Induction of miR-630” (PLoS ONE, 2014)
